Source: patent US20180148418A1, “AMIDO-SUBSTITUTED CYCLOHEXANE DERIVATIVES” (Bayer Pharma Aktiengesellschaft, priority 2015, published 2018)

Experiments:
TNKS1 = molecular target: T1, TNKS1 (Homo sapiens, UniProt O95271); assay: TNKS1 Assay B (auto-parsylation, [3H]-NAD+ SPA); type: biochemical; settings: 6 nM TNKS1, auto-parsylation, over night at room temperature
T1 construct: purchased BPS Bioscience, San Diego, USA 80579 (TNKS1 Histone Ribosylation Assay Kit)
T1 sequence (O95271 1-1327): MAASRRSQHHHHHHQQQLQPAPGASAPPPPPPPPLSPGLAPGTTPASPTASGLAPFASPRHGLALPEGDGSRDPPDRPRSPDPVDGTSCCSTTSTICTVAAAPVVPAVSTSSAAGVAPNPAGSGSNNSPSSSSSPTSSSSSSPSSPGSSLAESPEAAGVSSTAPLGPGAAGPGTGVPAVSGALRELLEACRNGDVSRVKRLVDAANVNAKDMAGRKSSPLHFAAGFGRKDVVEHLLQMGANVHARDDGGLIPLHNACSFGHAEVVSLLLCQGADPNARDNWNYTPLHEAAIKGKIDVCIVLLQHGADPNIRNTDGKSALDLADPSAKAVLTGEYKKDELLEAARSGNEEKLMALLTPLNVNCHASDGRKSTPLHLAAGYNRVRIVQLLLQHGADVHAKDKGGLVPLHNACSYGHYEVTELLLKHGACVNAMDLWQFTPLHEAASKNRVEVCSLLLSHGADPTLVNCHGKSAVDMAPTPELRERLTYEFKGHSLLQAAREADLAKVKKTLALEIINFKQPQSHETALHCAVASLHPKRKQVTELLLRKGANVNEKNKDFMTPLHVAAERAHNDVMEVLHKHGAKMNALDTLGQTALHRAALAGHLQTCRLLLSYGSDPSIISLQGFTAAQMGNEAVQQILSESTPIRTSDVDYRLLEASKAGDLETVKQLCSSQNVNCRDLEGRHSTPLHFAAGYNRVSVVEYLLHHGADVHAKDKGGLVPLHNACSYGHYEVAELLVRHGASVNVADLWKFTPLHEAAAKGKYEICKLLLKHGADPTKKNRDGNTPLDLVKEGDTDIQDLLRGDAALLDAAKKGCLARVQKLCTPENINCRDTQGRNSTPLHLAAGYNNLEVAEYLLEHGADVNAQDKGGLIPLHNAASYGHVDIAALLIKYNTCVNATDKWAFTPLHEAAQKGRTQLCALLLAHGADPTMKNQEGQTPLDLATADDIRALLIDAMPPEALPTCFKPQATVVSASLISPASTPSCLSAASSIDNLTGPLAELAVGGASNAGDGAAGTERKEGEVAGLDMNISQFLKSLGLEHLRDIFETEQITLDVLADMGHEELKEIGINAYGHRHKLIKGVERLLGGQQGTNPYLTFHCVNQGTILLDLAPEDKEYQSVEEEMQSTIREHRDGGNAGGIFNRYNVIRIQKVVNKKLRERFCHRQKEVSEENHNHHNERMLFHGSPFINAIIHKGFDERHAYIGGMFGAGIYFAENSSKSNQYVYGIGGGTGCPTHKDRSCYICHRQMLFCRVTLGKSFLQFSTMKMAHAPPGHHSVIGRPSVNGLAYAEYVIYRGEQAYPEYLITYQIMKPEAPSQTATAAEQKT

[1] = tested on: HEK293 cells cotransfected with the FOP control vector; assay: HEK293 FOP assay (control reporter with non-functional TCF elements); type: cell-based; settings: Homo sapiens, 16 hours
Outline: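 Stable HEK293 line carrying FOP control reporter (randomized non-functional TCF sites, with pcDNA3), Geneticin-selected, plated 24 h before assay. Stimulated with recombinant human Wnt-3a (2500-5 ng/ml) and compounds 50 μM–15 nM (3.16-fold steps) in CAFTY buffer pH 7.4 with 2 mM Ca2+, 0.01% BSA, run parallel to TOP line.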

Row | SMILES | IC50 (TNKS1) [µM] | IC50 [1] [µM]
1 | CNC(=O)c1nc[nH]c1C(=O)N[C@H]1CC[C@H](C(=O)Nc2cccnc2Cl)CC1 [Example 10, N^5-{trans-4-[(2-chloropyridin-3-yl)carbamoyl]cyclohexyl}-N^4-methyl-1H-imidazole-4,5-dicarboxamide] | 0.25 | ≥ 50
2 | CNC(=O)c1nc[nH]c1C(=O)N[C@H]1CC[C@H](C(=O)Nc2ccncc2Cl)CC1 [Example 11, N^5-{trans-4-[(3-chloropyridin-4-yl)carbamoyl]cyclohexyl}-N^4-methyl-1H-imidazole-4,5-dicarboxamide] | 0.26 | ≥ 50
3 | CC1CCN(CCNC(=O)c2nc[nH]c2C(=O)N[C@H]2CC[C@H](C(=O)Nc3ccc(F)cc3Cl)CC2)CC1 [Example 12, N^5-{trans-4-[(2-chloro-4-fluorophenyl)carbamoyl]cyclohexyl}-N^4-[2-(4-methylpiperidin-1-yl)ethyl]-1H-imidazole-4,5-dicarboxamide] | 0.0037 | ≥ 50
4 | O=C(NCCN1CCOCC1)c1nc[nH]c1C(=O)N[C@H]1CC[C@H](C(=O)Nc2ccc(F)cc2Cl)CC1 [Example 13, N^5-{trans-4-[(2-chloro-4-fluorophenyl)carbamoyl]cyclohexyl}-N^4-[2-(morpholin-4-yl)ethyl]-1H-imidazole-4,5-dicarboxamide] | 0.01 | ≥ 50
5 | O=C(N[C@H]1CC[C@H](C(=O)Nc2ccc(F)cc2Cl)CC1)c1[nH]cnc1C(=O)N1CC2(COC2)C1 [Example 14, N-{trans-4-[(2-chloro-4-fluorophenyl)carbamoyl]cyclohexyl}-4-(2-oxa-6-azaspiro[3.3]hept-6-ylcarbonyl)-1H-imidazole-5-carboxamide] | 0.063 | ≥ 50
6 | CCNC(=O)c1nc[nH]c1C(=O)N[C@H]1CC[C@H](C(=O)Nc2ccc(F)cc2Cl)CC1 [Example 15, N^5-{trans-4-[(2-chloro-4-fluorophenyl)carbamoyl]cyclohexyl}-N^4-ethyl-1H-imidazole-4,5-dicarboxamide] | 0.052 | ≥ 50
7 | CN(C)C(=O)c1nc[nH]c1C(=O)N[C@H]1CC[C@H](C(=O)Nc2ccc(F)cc2Cl)CC1 [Example 16, N^5-{trans-4-[(2-chloro-4-fluorophenyl)carbamoyl]cyclohexyl}-N^4,N^4-dimethyl-1H-imidazole-4,5-dicarboxamide] | 1.1 | ≥ 50
8 | O=C(NC1CC1)c1nc[nH]c1C(=O)N[C@H]1CC[C@H](C(=O)Nc2ccc(F)cc2Cl)CC1 [Example 17, N^5-{trans-4-[(2-chloro-4-fluorophenyl)carbamoyl]cyclohexyl}-N^4-cyclopropyl-1H-imidazole-4,5-dicarboxamide] | 0.084 | ≥ 50
9 | O=C(NCCO)c1nc[nH]c1C(=O)N[C@H]1CC[C@H](C(=O)Nc2ccc(F)cc2Cl)CC1 [Example 18, N^5-{trans-4-[(2-chloro-4-fluorophenyl)carbamoyl]cyclohexyl}-N^4-(2-hydroxyethyl)-1H-imidazole-4,5-dicarboxamide] | 0.094 | ≥ 50
10 | COCCNC(=O)c1nc[nH]c1C(=O)N[C@H]1CC[C@H](C(=O)Nc2ccc(F)cc2Cl)CC1 [Example 19, N^5-{trans-4-[(2-chloro-4-fluorophenyl)carbamoyl]cyclohexyl}-N^4-(2-methoxyethyl)-1H-imidazole-4,5-dicarboxamide] | 0.12 | ≥ 50
11 | CC(C)NC(=O)c1nc[nH]c1C(=O)N[C@H]1CC[C@H](C(=O)Nc2ccc(F)cc2Cl)CC1 [Example 20, N^5-{trans-4-[(2-chloro-4-fluorophenyl)carbamoyl]cyclohexyl}-N^4-isopropyl-1H-imidazole-4,5-dicarboxamide] | 0.09 | ≥ 50

Continued, in another order:

Row | IC50 (TNKS1) [µM] | SMILES | IC50 [1] [µM]
12 | 0.0073 | O=C(NC1CCC2(CC1)CCN(c1cc(F)c(F)cc1Cl)C2=O)c1cnn2cccnc12 (single isomer, unassigned; isomer 1) [Example 168, N-[2-(2-chloro-4,5-difluorophenyl)-1-oxo-2-azaspiro[4.5]dec-8-yl]pyrazolo[1,5-a]pyrimidine-3-carboxamide (isomer 1)] | ≥ 50
13 | 0.037 | O=C(NCC(F)(F)F)c1nc[nH]c1C(=O)N[C@H]1CC[C@H](C(=O)Nc2ccc(F)cc2Cl)CC1 [Example 21, N^5-{trans-4-[(2-chloro-4-fluorophenyl)carbamoyl]cyclohexyl}-N^4-(2,2,2-trifluoroethyl)-1H-imidazole-4,5-dicarboxamide] | ≥ 50
14 | 0.66 | O=C(N[C@H]1CC[C@@]2(CCN(c3ccc(F)cc3Cl)C2=O)CC1)c1[nH]cnc1C(=O)N1CCN(CC(F)(F)F)CC1 [Example 167, N-[(trans)-2-(2-chloro-4-fluorophenyl)-1-oxo-2-azaspiro[4.5]dec-8-yl]-4-{[4-(2,2,2-trifluoroethyl)piperazin-1-yl]carbonyl}-1H-imidazole-5-carboxamide] | ≥ 50
15 | 0.035 | Cc1cc(C)n2ncc(C(=O)N[C@H]3CC[C@H](C(=O)Nc4cnccc4Cl)CC3)c2n1 [Example 169, N-{trans-4-[(4-chloropyridin-3-yl)carbamoyl]cyclohexyl}-5,7-dimethylpyrazolo[1,5-a]pyrimidine-3-carboxamide] | ≥ 50
16 | 2.4 | CNC(=O)c1nc[nH]c1C(=O)N[C@H]1CC[C@H](C(=O)Nc2cc(C(C)(C)O)ccc2Cl)CC1 [Example 170, N^5-(trans-4-{[2-chloro-5-(2-hydroxypropan-2-yl)phenyl]carbamoyl}cyclohexyl)-N^4-methyl-1H-imidazole-4,5-dicarboxamide] | ≥ 50
17 | 0.4 | CNC(=O)c1nc[nH]c1C(=O)N[C@H]1CC[C@H](C(=O)N(C)c2ccccc2)CC1 [Example 171, N^4-methyl-N^5-{trans-4-[methyl(phenyl)carbamoyl]cyclohexyl}-1H-imidazole-4,5-dicarboxamide] | ≥ 50
18 | 0.98 | CNC(=O)c1nc[nH]c1C(=O)N[C@H]1CC[C@H](C(=O)N(C)c2ccc(F)cc2)CC1 [Example 172, N^5-{trans-4-[(4-fluorophenyl)(methyl)carbamoyl]cyclohexyl}-N^4-methyl-1H-imidazole-4,5-dicarboxamide] | ≥ 50
19 | 0.2 | CNC(=O)c1nc[nH]c1C(=O)N[C@H]1CC[C@H](C(=O)N(C)c2ccc(F)cc2Cl)CC1 [Example 173, N^5-{trans-4-[(2-chloro-4-fluorophenyl)(methyl)carbamoyl]cyclohexyl}-N^4-methyl-1H-imidazole-4,5-dicarboxamide] | ≥ 50
20 | 0.16 | Cc1cc(N(C)C(=O)[C@H]2CC[C@H](NC(=O)c3cnn4cccnc34)CC2)c(Cl)cc1F [Example 176, N-{trans-4-[(2-chloro-4-fluoro-5-methylphenyl)(methyl)carbamoyl]cyclohexyl}pyrazolo[1,5-a]pyrimidine-3-carboxamide] | 5.3
21 | 0.013 | O=C(N[C@H]1CC[C@H](C(=O)N(CC2CC2)c2ccc(F)cc2Cl)CC1)c1cnn2cccnc12 [Example 177, N-{trans-4-[(2-chloro-4-fluorophenyl)(cyclopropylmethyl)carbamoyl]cyclohexyl}pyrazolo[1,5-a]pyrimidine-3-carboxamide] | 40
22 | 0.33 | Cc1ccccc1N(C)C(=O)[C@H]1CC[C@H](NC(=O)c2cnn3cccnc23)CC1 [Example 178, N-{trans-4-[methyl(2-methylphenyl)carbamoyl]cyclohexyl}pyrazolo[1,5-a]pyrimidine-3-carboxamide] | ≥ 50
23 | 0.97 | C[C@]1(C(=O)Nc2ccc(F)cc2Cl)CC[C@H](NC(=O)c2cnn3cccnc23)CC1 [Example 179, N-{trans-4-[(2-chloro-4-fluorophenyl)carbamoyl]-4-methylcyclohexyl}pyrazolo[1,5-a]pyrimidine-3-carboxamide] | ≥ 50
